This note sets out measurements from ChEMBL document CHEMBL5055654, “Discovery of 5-methylpyrimidopyridone analogues as selective antimycobacterial agents” (Bioorg Med Chem, 2021).

The structures appear in SMILES notation. Values after ≈ are worked out from the molar mass of the structure shown. Active and inactive are the calls of the source. No cut-off for these calls is given here. A value given as a limit tells only on which side of the number the result lay.

Experiment [1] relates to Mycobacterium tuberculosis. The experiment can be described thus: Antitubercular activity against Mycobacterium tuberculosis mc2 6230 assessed as inhibition of bacterial growth incubated for 7 days. It counts as functional. Conditions: mc2 6230, 168 h, time 7 day.
For a further experiment, the system named is Escherichia coli. The experiment can be described thus: Antibacterial activity against Escherichia coli at 10 uM incubated for 16 hrs by microtiter reader analysis. It counts as functional, organism-based.
A further experiment concerns Salmonella. Briefly: Antibacterial activity against Salmonella at 10 uM incubated for 16 hrs by microtiter reader analysis. It counts as functional, organism-based.
For the next experiment, the system named is Vero. The experiment can be described thus: Cytotoxicity against African green monkey Vero cells assessed as reduction in cell viability measured after 72 hrs by CCK8 assay. It counts as cell-based. Conditions: Chlorocebus sabaeus. For orientation: Formazan colour is commonly taken as a measure of viable cells.
The nature of experiment [2]: Binding affinity to Mycobacterium tuberculosis PknB.

For the compound `Cc1c(-c2ccccc2Cl)c(=O)n(C23CC4CC(CC(C4)C2)C3)c2nc(Nc3ccc(N4CCN(C)CC4)cc3)ncc12`, the MIC in experiment [1] was determined as 512 µM (≈ 305 µg/mL).
Take `Cc1c(-c2ccccc2Cl)c(=O)n(C23CC4CC(CC(C4)C2)C3)c2nc(Nc3ccc(N4CCN(C)CC4)c(OC(C)C)c3)ncc12`: the MIC in experiment [1] is 8 µM (≈ 5.23 µg/mL). The result in the experiment on Escherichia coli and in the experiment on Salmonella was inactive. The IC50 in the experiment on Vero amounted to 4.6 µM.
For the compound `Cc1cc(Nc2ncc3c(C)c(-c4ccccc4Cl)c(=O)n(C45CC6CC(CC(C6)C4)C5)c3n2)ccc1N1CCN(C)CC1`, in experiment [1], the minimal inhibitory concentration (MIC) came out at 8 µM (≈ 4.87 µg/mL). Besides, the result in the experiment with Escherichia coli and in the experiment with Salmonella was inactive. The IC50 with Vero amounted to 4.8 µM.
Regarding `COc1nc2ccc(Br)cc2cc1[C@@H](c1ccccc1)[C@@](O)(CCN(C)C)c1cccc2ccccc12` [BEDAQUILINE], in experiment [1], the MIC was 0.02 µM (≈ 0.0111 µg/mL).
Still for that read-out and setting: as for `CCNc1ncc2c(C)c(-c3ccccc3Cl)c(=O)n(C34CC5CC(CC(C5)C3)C4)c2n1`, the figure is 256 µM (≈ 115 µg/mL); as for `Cc1c(-c2ccccc2Cl)c(=O)n(C23CC4CC(CC(C4)C2)C3)c2nc(NC(C)C)ncc12`, 256 µM (≈ 119 µg/mL).
Still for that read-out and setting: under `Cc1c(-c2ccccc2Cl)c(=O)n(C23CC4CC(CC(C4)C2)C3)c2nc(N3CCN(C)CC3)ncc12` stands more than 512 µM; under `Cc1cc(Nc2ncc3c(C)c(-c4ccc(Cl)cc4)c(=O)n(C45CC6CC(CC(C6)C4)C5)c3n2)ccc1N1CCC(N(C)C)CC1`, more than 512 µM.
Turning to `NNC(=O)c1ccncc1` [ISONIAZID], in experiment [1], the MIC came to 0.2 µM (≈ 0.0274 µg/mL).
Take `Cc1c(-c2ccccc2Cl)c(=O)n(C23CC4CC(CC(C4)C2)C3)c2nc(N3CCC(N(C)C)CC3)ncc12`: in experiment [1], the MIC was 16 µM (≈ 8.51 µg/mL).
Regarding `CCOc1cc(Nc2ncc3c(C)c(-c4ccccc4Cl)c(=O)n(C45CC6CC(CC(C6)C4)C5)c3n2)ccc1N1CCN(C)CC1`, in experiment [1], the MIC amounted to 8 µM (≈ 5.11 µg/mL). Also, the result in the experiment with Escherichia coli and in the experiment on Salmonella was inactive. Moreover, the 50% inhibitory concentration (IC50) in the experiment with Vero was 4.4 µM.
Turning to `Cc1cc(Nc2ncc3c(C)c(-c4ccccc4Cl)c(=O)n(C4CCCCC4)c3n2)ccc1N1CCC(N(C)C)CC1`, the MIC in experiment [1] stood at 32 µM (≈ 18.7 µg/mL).
On to `Cc1c(-c2ccccc2Cl)c(=O)n(C23CC4CC(CC(C4)C2)C3)c2nc(N3CC(OC(C)C)C3)ncc12`, for which the MIC in experiment [1] was more than 512 µM.
Consider `Cc1cc(Nc2ncc3c(C)c(-c4ccccc4Cl)c(=O)n(C4CCCC4)c3n2)ccc1N1CCC(N(C)C)CC1`, for which the MIC in experiment [1] stood at 32 µM (≈ 18.3 µg/mL).
On to `Cc1cc(Nc2ncc3c(C)c(-c4ccccc4C#N)c(=O)n(C45CC6CC(CC(C6)C4)C5)c3n2)ccc1N1CCC(N(C)C)CC1`, for which the MIC in experiment [1] turned out to be 16 µM (≈ 10 µg/mL).
As to `CCC(C)Nc1ncc2c(C)c(-c3ccccc3Cl)c(=O)n(C34CC5CC(CC(C5)C3)C4)c2n1` (stereo not given), the MIC in experiment [1] is 512 µM (≈ 244 µg/mL).
Turning to `Cc1cc(Nc2ncc3c(C)c(-c4ccccc4Cl)c(=O)n(C45CC6CC(CC(C6)C4)C5)c3n2)ccc1N1CCC(C)CC1`, the MIC in experiment [1] is more than 512 µM.
As for `Cc1c(-c2ccccc2Cl)c(=O)n(C23CC4CC(CC(C4)C2)C3)c2nc(NC[C@H]3CCCO3)ncc12`, the MIC in experiment [1] is more than 512 µM.
Regarding `COc1ccccc1-c1c(C)c2cnc(Nc3ccc(N4CCC(N(C)C)CC4)c(C)c3)nc2n(C23CC4CC(CC(C4)C2)C3)c1=O`, the MIC in experiment [1] amounted to 16 µM (≈ 10.1 µg/mL).
Consider `Cc1ccccc1-c1c(C)c2cnc(Nc3ccc(N4CCC(N(C)C)CC4)c(C)c3)nc2n(C23CC4CC(CC(C4)C2)C3)c1=O`, for which the MIC in experiment [1] is 8 µM (≈ 4.93 µg/mL).
On to `Cc1c(-c2ccccc2Cl)c(=O)n(C23CC4CC(CC(C4)C2)C3)c2nc(N3CCC(N4CCOCC4)CC3)ncc12`, for which, in experiment [1], the MIC is more than 512 µM.
`Cc1c(-c2ccccc2Cl)c(=O)n(C23CC4CC(CC(C4)C2)C3)c2nc(NC3CCCC3)ncc12`: the MIC in experiment [1] amounted to 265 µM (≈ 130 µg/mL).
As for `Cc1cc(Nc2ncc3c(C)c(-c4ccccc4Cl)c(=O)n(C45CC6CC(CC(C6)C4)C5)c3n2)ccc1N1CCN(CCO)CC1`, the MIC in experiment [1] is 32 µM (≈ 20.5 µg/mL).
`Cc1cc(Nc2ncc3c(C)c(-c4ccccc4Cl)c(=O)n(C45CC6CC(CC(C6)C4)C5)c3n2)ccc1N1CCC(N(C)C)CC1`: the MIC in experiment [1] was found to be 4 µM (≈ 2.55 µg/mL). The outcome in the experiment on Escherichia coli and with Salmonella was inactive. For the same compound, the IC50 with Vero amounted to 2.9 µM.
Take `Cc1cc(Nc2ncc3c(C)c(-c4ccccc4)c(=O)n(C45CC6CC(CC(C6)C4)C5)c3n2)ccc1N1CCC(N(C)C)CC1`: in experiment [1], the MIC stood at 16 µM (≈ 9.65 µg/mL).
On to `Cc1c(-c2ccccc2Cl)c(=O)n(C23CC4CC(CC(C4)C2)C3)c2nc(N3CCC(C)CC3)ncc12`, for which the MIC in experiment [1] is more than 512 µM.
As to `COCCNc1ncc2c(C)c(-c3ccccc3Cl)c(=O)n(C34CC5CC(CC(C5)C3)C4)c2n1`, the MIC in experiment [1] is more than 512 µM.
With `CCCCNc1ncc2c(C)c(-c3ccccc3Cl)c(=O)n(C34CC5CC(CC(C5)C3)C4)c2n1`, in experiment [1], the MIC worked out at 512 µM (≈ 244 µg/mL).
Turning to `Cc1cc(Nc2ncc3c(C)c(-c4ccccc4F)c(=O)n(C45CC6CC(CC(C6)C4)C5)c3n2)ccc1N1CCC(N(C)C)CC1`, the MIC in experiment [1] came to 32 µM (≈ 19.9 µg/mL).
For `Cc1c(-c2ccccc2Cl)c(=O)n(C23CC4CC(CC(C4)C2)C3)c2nc(NC3CC3)ncc12`, the MIC in experiment [1] came out at 265 µM (≈ 122 µg/mL).
Regarding `COc1cc(Nc2ncc3c(C)c(-c4ccccc4Cl)c(=O)n(C45CC6CC(CC(C6)C4)C5)c3n2)ccc1N1CCN(C)CC1`, the MIC in experiment [1] was 8 µM (≈ 5 µg/mL). For the same compound, the affinity in experiment [2], expressed as Kd, was 0.75 µM.
`Cc1c(-c2ccccc2Cl)c(=O)n(C23CC4CC(CC(C4)C2)C3)c2nc(N3CCN(CCO)CC3)ncc12`: the MIC in experiment [1] was determined as 64 µM (≈ 34.2 µg/mL).
For the compound `Cc1c(-c2ccccc2Cl)c(=O)n(C23CC4CC(CC(C4)C2)C3)c2nc(N(C)CCO)ncc12`, in experiment [1], the MIC was more than 512 µM.
For the compound `Cc1c(-c2ccccc2Cl)c(=O)n(C23CC4CC(CC(C4)C2)C3)c2nc(NCCO)ncc12`, the MIC in experiment [1] was more than 512 µM.
With `Cc1c(-c2ccccc2Cl)c(=O)n(C23CC4CC(CC(C4)C2)C3)c2nc(N3CCC(O)CC3)ncc12`, the minimum inhibitory concentration (MIC) in experiment [1] is more than 512 µM.
Take `Cc1c(-c2ccccc2Cl)c(=O)n(C23CC4CC(CC(C4)C2)C3)c2nc(NC3CCCCC3)ncc12`: the MIC in experiment [1] was 512 µM (≈ 258 µg/mL).
On to `Cc1cc(Nc2ncc3c(C)c(-c4cccc(Cl)c4)c(=O)n(C45CC6CC(CC(C6)C4)C5)c3n2)ccc1N1CCC(N(C)C)CC1`, for which, in experiment [1], the MIC is more than 512 µM.

The term MIC denotes the least concentration at which growth counts as inhibited. For orientation: IC50 means the concentration needed to halve the response being measured. One may read the Kd as the free concentration of one partner at which half of the binding sites on the other are occupied at equilibrium, for simple one-to-one binding.
